Reference: patent US12077503B2, “Substituted cyclic amides and their use as herbicides” (FMC CORPORATION, priority 2015, dated 2024)

Tests used:
Format in all cases: in vivo
[1] = test system: velvetleaf (Abutilon theophrasti); assay: Test G Post-Emergence Protocol; settings: Abutilon theophrasti, post-emergence, 312 h; for pest or weed control at 15.625 g/ha: 15.625 g ai/ha, evaluated after 13 days (100=total damage to plant; 0=no damage to plant), read-out: Velvetleaf damage rating; for pest or weed control at 62.5 g/ha: 62.5 g ai/ha, read-out: Velvetleaf damage rating (100=total damage to plant; 0=no damage to plant); for pest or weed control at 62.5 g/ha / pest or weed control at 250 g/ha: evaluated after 13 days; for pest or weed control at 250 g/ha: 250 g ai/ha, read-out: damage to plant, Velvetleaf (100=total damage to plant; 0=no damage to plant)
How it was run: (§1)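 Seedlings grown 8 days in soil in a glasshouse (24/16 °C day/night, 14 h light, 65% humidity) were sprayed post-emergence with compound in acetone/water 50:50 plus 0.5% Tween 20 at 15.625, 62.5 or 250 g/ha. Damage was scored after 13 days on a 0–100 scale (100 = total damage).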

[2] = test system: giant foxtail (Setaria faberi); assay: Test G Post-Emergence Protocol; settings: Setaria faberi, post-emergence, 312 h; for pest or weed control at 15.625 g/ha: 15.625 g ai/ha, evaluated after 13 days (100=total damage to plant; 0=no damage to plant), read-out: Foxtail, Giant damage rating; for pest or weed control at 62.5 g/ha: 62.5 g ai/ha, read-out: Foxtail, Giant damage rating (100=total damage to plant; 0=no damage to plant); for pest or weed control at 62.5 g/ha / pest or weed control at 250 g/ha: evaluated after 13 days; for pest or weed control at 250 g/ha: 250 g ai/ha, read-out: damage to plant, Foxtail, Giant (100=total damage to plant; 0=no damage to plant)
How it was run: as §1

[3] = test system: ivy-leaved morning glory (Ipomoea hederacea); assay: Test G Post-Emergence Protocol; settings: Ipomoea, post-emergence, 312 h; for pest or weed control at 15.625 g/ha: 15.625 g ai/ha, evaluated after 13 days (100=total damage to plant; 0=no damage to plant), read-out: Morningglory, Ivy-leaved damage rating; for pest or weed control at 62.5 g/ha: 62.5 g ai/ha, read-out: Morningglory, Ivy-leaved damage rating (100=total damage to plant; 0=no damage to plant); for pest or weed control at 62.5 g/ha / pest or weed control at 250 g/ha: evaluated after 13 days; for pest or weed control at 250 g/ha: 250 g ai/ha, read-out: damage to plant, Morningglory, Ivy-leaved (100=total damage to plant; 0=no damage to plant)
How it was run: as §1

[4] = test system: barnyardgrass (Echinochloa crus-galli); assay: Test G Post-Emergence Protocol; settings: Echinochloa crus-galli, post-emergence, 312 h; for pest or weed control at 15.625 g/ha: 15.625 g ai/ha, evaluated after 13 days (100=total damage to plant; 0=no damage to plant), read-out: Barnyardgrass damage rating; for pest or weed control at 62.5 g/ha: 62.5 g ai/ha, read-out: Barnyardgrass damage rating (100=total damage to plant; 0=no damage to plant); for pest or weed control at 62.5 g/ha / pest or weed control at 250 g/ha: evaluated after 13 days; for pest or weed control at 250 g/ha: 250 g ai/ha, read-out: damage to plant, Barnyardgrass (100=total damage to plant; 0=no damage to plant)
How it was run: as §1

[5] = test system: redroot pigweed (Amaranthus retroflexus); assay: Test G Post-Emergence Protocol; settings: Amaranthus retroflexus, post-emergence, 312 h; for pest or weed control at 15.625 g/ha: 15.625 g ai/ha, evaluated after 13 days (100=total damage to plant; 0=no damage to plant), read-out: Pigweed, Redroot damage rating; for pest or weed control at 62.5 g/ha: 62.5 g ai/ha, read-out: Pigweed, Redroot damage rating (100=total damage to plant; 0=no damage to plant); for pest or weed control at 62.5 g/ha / pest or weed control at 250 g/ha: evaluated after 13 days; for pest or weed control at 250 g/ha: 250 g ai/ha, read-out: damage to plant, Pigweed, Redroot (100=total damage to plant; 0=no damage to plant)
How it was run: as §1

corn (Zea mays) [6] = assay: Test G Post-Emergence Protocol; settings: Zea mays, post-emergence, 312 h; for plant injury at 15.625 g/ha: 15.625 g ai/ha, evaluated after 13 days (100=total damage to plant; 0=no damage to plant), read-out: Corn damage rating; for plant injury at 62.5 g/ha: 62.5 g ai/ha, read-out: Corn damage rating (100=total damage to plant; 0=no damage to plant); for plant injury at 62.5 g/ha / plant injury at 250 g/ha: evaluated after 13 days; for plant injury at 250 g/ha: 250 g ai/ha, read-out: damage to plant, Corn (100=total damage to plant; 0=no damage to plant)
How it was run: as §1

[7] = test system: velvetleaf (Abutilon theophrasti); assay: Test G Pre-Emergence Protocol; settings: Abutilon theophrasti, pre-emergence, 312 h, evaluated after 13 days; for pest or weed control at 15.625 g/ha: 15.625 g ai/ha; for pest or weed control at 15.625 g/ha / pest or weed control at 250 g/ha: read-out: Velvetleaf damage rating (100=total damage to plant; 0=no damage to plant); for pest or weed control at 62.5 g/ha: 62.5 g ai/ha, 100=total damage to plant, 0=no damage to plant, read-out: plant damage rating, Velvetleaf; for pest or weed control at 250 g/ha: 250 g ai/ha
How it was run: (§2)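 Glasshouse pre-emergence test: soil-sown seeds, sprayed after 1 d at 15.625, 62.5 or 250 g/ha. Conditions 24/16° C day/night, 14 h light, 65% humidity, watering twice daily. Rating 13 d post-spray (100 = total damage).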

[8] = test system: giant foxtail (Setaria faberi); assay: Test G Pre-Emergence Protocol; settings: Setaria faberi, pre-emergence, 312 h, evaluated after 13 days; for pest or weed control at 15.625 g/ha: 15.625 g ai/ha; for pest or weed control at 15.625 g/ha / pest or weed control at 250 g/ha: read-out: Foxtail, Giant damage rating (100=total damage to plant; 0=no damage to plant); for pest or weed control at 62.5 g/ha: 62.5 g ai/ha, 100=total damage to plant, 0=no damage to plant, read-out: plant damage rating, Foxtail, Giant; for pest or weed control at 250 g/ha: 250 g ai/ha
How it was run: as §2

[9] = test system: ivy-leaved morning glory (Ipomoea hederacea); assay: Test G Pre-Emergence Protocol; settings: Ipomoea, pre-emergence, 312 h, evaluated after 13 days; for pest or weed control at 15.625 g/ha: 15.625 g ai/ha, read-out: Morning-glory, Ivy-leaved damage rating (100=total damage to plant; 0=no damage to plant); for pest or weed control at 62.5 g/ha: 62.5 g ai/ha, 100=total damage to plant, 0=no damage to plant, read-out: plant damage rating, Morningglory, Ivy-leaved; for pest or weed control at 250 g/ha: 250 g ai/ha, read-out: Morningglory, Ivy-leaved damage rating (100=total damage to plant; 0=no damage to plant)
How it was run: as §2

[10] = test system: barnyardgrass (Echinochloa crus-galli); assay: Test G Pre-Emergence Protocol; settings: Echinochloa crus-galli, pre-emergence, 312 h, evaluated after 13 days; for pest or weed control at 15.625 g/ha: 15.625 g ai/ha, read-out: Barnyard grass damage rating (100=total damage to plant; 0=no damage to plant); for pest or weed control at 62.5 g/ha: 62.5 g ai/ha, 100=total damage to plant, 0=no damage to plant, read-out: plant damage rating, Barnyardgrass; for pest or weed control at 250 g/ha: 250 g ai/ha, read-out: Barnyardgrass damage rating (100=total damage to plant; 0=no damage to plant)
How it was run: as §2

[11] = test system: redroot pigweed (Amaranthus retroflexus); assay: Test G Pre-Emergence Protocol; settings: Amaranthus retroflexus, pre-emergence, 312 h, evaluated after 13 days; for pest or weed control at 15.625 g/ha: 15.625 g ai/ha; for pest or weed control at 15.625 g/ha / pest or weed control at 250 g/ha: read-out: Pigweed, Redroot damage rating (100=total damage to plant; 0=no damage to plant); for pest or weed control at 62.5 g/ha: 62.5 g ai/ha, 100=total damage to plant, 0=no damage to plant, read-out: plant damage rating, Pigweed, Redroot; for pest or weed control at 250 g/ha: 250 g ai/ha
How it was run: as §2

corn (Zea mays) [12] = assay: Test G Pre-Emergence Protocol; settings: Zea mays, pre-emergence, 312 h, evaluated after 13 days; for plant injury at 15.625 g/ha: 15.625 g ai/ha; for plant injury at 15.625 g/ha / plant injury at 250 g/ha: read-out: Corn damage rating (100=total damage to plant; 0=no damage to plant); for plant injury at 62.5 g/ha: 62.5 g ai/ha, 100=total damage to plant, 0=no damage to plant, read-out: plant damage rating, Corn; for plant injury at 250 g/ha: 250 g ai/ha
How it was run: as §2

CN1C[C@@H](c2ccc(C(F)(F)F)cc2)[C@H](C(=O)Nc2nnc(C(F)(F)F)s2)C1=O (racemic) [Compound 1548]
0%: pest or weed control at 15.625 g/ha [1] | pest or weed control at 62.5 g/ha [1] | pest or weed control at 250 g/ha [1] | pest or weed control at 15.625 g/ha [2] | pest or weed control at 62.5 g/ha [2] | pest or weed control at 250 g/ha [2] | pest or weed control at 15.625 g/ha [3] | pest or weed control at 62.5 g/ha [3] | pest or weed control at 250 g/ha [3] | pest or weed control at 15.625 g/ha [4] | pest or weed control at 62.5 g/ha [4] | pest or weed control at 250 g/ha [4] | pest or weed control at 15.625 g/ha [5] | pest or weed control at 62.5 g/ha [5] | pest or weed control at 250 g/ha [5] | plant injury at 15.625 g/ha (corn (Zea mays) [6]) | plant injury at 62.5 g/ha (corn (Zea mays) [6]) | plant injury at 250 g/ha (corn (Zea mays) [6]) | pest or weed control at 15.625 g/ha [7] | pest or weed control at 62.5 g/ha [7] | pest or weed control at 250 g/ha [7] | pest or weed control at 15.625 g/ha [8] | pest or weed control at 62.5 g/ha [8] | pest or weed control at 250 g/ha [8] | pest or weed control at 15.625 g/ha [9] | pest or weed control at 62.5 g/ha [9] | pest or weed control at 250 g/ha [9] | pest or weed control at 15.625 g/ha [10] | pest or weed control at 62.5 g/ha [10] | pest or weed control at 250 g/ha [10] | pest or weed control at 15.625 g/ha [11] | pest or weed control at 62.5 g/ha [11] | pest or weed control at 250 g/ha [11] | plant injury at 15.625 g/ha (corn (Zea mays) [12]) | plant injury at 62.5 g/ha (corn (Zea mays) [12]) | plant injury at 250 g/ha (corn (Zea mays) [12])

Cc1nnc(NC(=O)[C@@H]2C(=O)N(C)C[C@H]2c2ccc(C(F)(F)F)cc2)nc1C (racemic) [Compound 1549]
0%: pest or weed control at 15.625 g/ha [1] | pest or weed control at 62.5 g/ha [1] | pest or weed control at 250 g/ha [1] | pest or weed control at 15.625 g/ha [2] | pest or weed control at 62.5 g/ha [2] | pest or weed control at 250 g/ha [2] | pest or weed control at 15.625 g/ha [3] | pest or weed control at 62.5 g/ha [3] | pest or weed control at 250 g/ha [3] | pest or weed control at 15.625 g/ha [4] | pest or weed control at 62.5 g/ha [4] | pest or weed control at 250 g/ha [4] | pest or weed control at 15.625 g/ha [5] | pest or weed control at 62.5 g/ha [5] | pest or weed control at 250 g/ha [5] | plant injury at 15.625 g/ha (corn (Zea mays) [6]) | plant injury at 62.5 g/ha (corn (Zea mays) [6]) | plant injury at 250 g/ha (corn (Zea mays) [6]) | pest or weed control at 15.625 g/ha [7] | pest or weed control at 62.5 g/ha [7] | pest or weed control at 250 g/ha [7] | pest or weed control at 15.625 g/ha [8] | pest or weed control at 62.5 g/ha [8] | pest or weed control at 250 g/ha [8] | pest or weed control at 15.625 g/ha [9] | pest or weed control at 62.5 g/ha [9] | pest or weed control at 250 g/ha [9] | pest or weed control at 15.625 g/ha [10] | pest or weed control at 62.5 g/ha [10] | pest or weed control at 250 g/ha [10] | pest or weed control at 15.625 g/ha [11] | pest or weed control at 62.5 g/ha [11] | pest or weed control at 250 g/ha [11] | plant injury at 15.625 g/ha (corn (Zea mays) [12]) | plant injury at 62.5 g/ha (corn (Zea mays) [12]) | plant injury at 250 g/ha (corn (Zea mays) [12])
